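Five concentrations, 48 hours, 96-well plates. TGI is the concentration that stops growth completely.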

Results on 24 compounds are retold here after PubChem BioAssay (NCI).

Holding throughout (test): NCI-60 cell line screen, 48 h
Assay [1] relates to HL-60(TB) leukemia.
Assay [2] concerns A549 NSCLC.
The test system of assay [3] is SF-539 CNS.
Assay [4] relates to NCI-H23 lung.
Assay [5] concerns UACC-257 melanoma.
For assay [6], the system named is EKVX NSCLC.
Assay [7] deals with SN12C renal.
Assay [8] deals with HCC-2998 colon.
For assay [9], the system named is HOP-62 NSCLC.

Turning to `O=S1(=O)c2ccccc2N=C(c2ccccc2Cl)CC1c1ccc(F)cc1` (stereo not drawn), the TGI amounted to 45.4 µM in [1]; 47.4 µM in assay [2]; 35.7 µM in [3]; 32.2 µM in [4]; 24.7 µM in assay [5]; 36.2 µM in assay [6]. Besides, the TGI in assay [7] came to 29.1 µM; in [8], 28.4 µM.

Turning to `CC(=O)NC(CCCN(Cc1ccccc1)C(=O)N(C)N=O)C(=O)NCc1ccccc1` (stereo not drawn), the TGI in assay [2], in [3], in [4], in assay [5], in assay [6] and in assay [7] was above 100 µM in each case. Also, the TGI in assay [8] and in [9] was above 100 µM in each case.

On to `C#CCOCn1cnc2ncnc(N)c21`, for which the TGI in [2], in [3], in assay [4], in assay [5], in [6] and in assay [7] was above 100 µM in each case. The TGI in assay [8] and in assay [9] was above 100 µM throughout.

Take `CN(C)CN(C)c1nc(N(C)C)nc(N(C)CN(C)C)n1`: the TGI in assay [1] is 36.4 µM; in assay [2] it was above 100 µM; in assay [3], above 100 µM; in [4], 95.8 µM; in assay [5], above 100 µM; in assay [6] it was above 100 µM. The TGI in assay [7], in [8] and in assay [9] was above 100 µM throughout.

As to `COc1cc(C(C#N)NNc2nc(C)cc(=O)[nH]2)cc(OC)c1OC` (stereo not drawn), the TGI in assay [1], in assay [2], in assay [3], in [4], in assay [5] and in [7] was above 100 µM each time. The compound also returned a TGI in assay [9] above 100 µM.

Regarding `O=C(/C=C/C1C(=O)NC(=O)NC1=O)CC(=O)C(=O)Nc1cc(Cl)c(Cl)cc1Cl`, the TGI in [1], in [2], in [3], in assay [4], in assay [5] and in assay [6] was above 100 µM throughout. In addition, the TGI in assay [7], in assay [8] and in assay [9] was above 100 µM each time.

In the case of `c1ccc(-c2ccnc3c2ccc2c(-c4ccccc4)ccnc23)cc1`, the TGI was determined as 3.69 µM in [1]; 8.71 µM in assay [2]; 5.62 µM in assay [3]; 14.1 µM in assay [4]; 5.5 µM in [5]; 5.53 µM in assay [6]. Moreover, the TGI in assay [7] was 6.54 µM; in [8] it was 14.3 µM; in assay [9], 7.86 µM.

As to `CC(C)(C)Sc1nnc(SC(C)(C)C)c2c(=O)[nH]nc(SC(C)(C)C)c12`, the TGI in [1] came out at 16.1 µM; in assay [2], 17.9 µM; in [3], 22.6 µM; in [4] it was 22.9 µM; in assay [5], 26.7 µM; in [6] it was 24.6 µM. For the same compound, the TGI in assay [7] stood at 21.9 µM; in assay [8], 23.9 µM; in [9], 27 µM.

With `C/C(=N\NS(=O)(=O)c1ccc([N+](=O)[O-])cc1)c1ccc[n+]([O-])n1`, the TGI in assay [1] is above 22.6 µM; in assay [2] it was above 100 µM; in assay [3], 4.94 µM; in assay [4], 3.6 µM; in assay [5], 14.6 µM; in assay [6], 20.9 µM. For the same compound, the TGI worked out at 12 µM in assay [7], 22.3 µM in assay [8] and 4.7 µM in [9].

Consider `CCOC(=O)CC(NC(=O)c1ccc(N=NN(C)C)cc1)C(=O)OCC` (stereo not drawn), for which the TGI in assay [1], in [2], in assay [3], in assay [4], in assay [5] and in assay [6] was above 100 µM each time. Moreover, the TGI in [7], in assay [8] and in [9] was above 100 µM throughout.

With `O=c1c2ccccc2nc(-c2ccccc2)n1NC(=S)Nc1cccc(Cl)c1`, the TGI in [1], in assay [2], in assay [3], in assay [4], in [5] and in assay [7] was above 100 µM throughout. In addition, the TGI in assay [9] is above 100 µM.

For `COc1ccc(C)cc1C1CCC(=O)O1` (stereo not drawn), the TGI in [1], in assay [2], in [3], in assay [4], in [5] and in [6] was above 100 µM in each case. Besides, the TGI in [7], in assay [8] and in assay [9] was above 100 µM in each case.

With `O=C1CCC(=O)c2sccc2N1`, the TGI in assay [1], in assay [2], in assay [3], in assay [4], in [5] and in assay [6] was above 100 µM in each case. The TGI in assay [7], in [8] and in assay [9] was above 100 µM each time.

Take `Cn1nc(-c2ccccc2)c(C(=O)/C=C/c2ccc(Cl)cc2)c(N2CCCC2)c1=O`: the TGI in assay [1] worked out at 4.97 µM; in [2] it was 49.4 µM; in [3] it was 13.2 µM; in assay [4], 10.6 µM; in assay [6], 32.4 µM; in assay [7] it was 54 µM. In assay [9], this compound registered a TGI of 6.93 µM.

Take `COC(=O)C(C(=O)C(N)=O)c1csc(-n2nc(-c3ccccc3)cc2-c2ccccc2)n1` (stereo not drawn): the TGI was above 31.6 µM in [1]; above 31.6 µM in assay [2]; above 31.6 µM in assay [3]; above 100 µM in assay [4]; above 31.6 µM in [5]; above 31.6 µM in [6]. In assay [8], this compound came in with a TGI above 31.6 µM.

On to `COc1ccc2c([nH]c3c(O)c(-c4c(C)cc5c([nH]c6c(CC=C(C)C)c(OC)ccc65)c4O)c(C)cc32)c1CC=C(C)C`, for which the TGI in [1], in [2], in [3], in assay [4], in [5] and in assay [7] was above 100 µM throughout. For the same compound, the TGI in assay [8] and in [9] was above 100 µM in each case.

For `c1ccc(-c2nnc3nn4c(-c5ccccc5)cnnc4c3c2-c2ccccc2)cc1`, the TGI in assay [1] is above 100 µM; in assay [2], above 100 µM; in [3], 99.5 µM; in assay [4], above 100 µM; in assay [5] it was above 100 µM; in assay [6], 70.9 µM. In addition, the TGI in [7] and in assay [8] was above 100 µM throughout.

As to `COc1ccc(NC(=O)C2C(=O)N(c3ccc(OC)cc3)C(=O)/C2=N\NC(N)=O)cc1` (stereo not drawn), the TGI in assay [3] is 30.8 µM; in assay [4], above 100 µM; in assay [5], above 100 µM; in [6], above 100 µM; in [7], above 100 µM; in assay [8], above 100 µM. In assay [9], this compound yielded a TGI of 32.9 µM.

As to `S=c1c2ccccc2c(=S)n2n1CC=CC2`, the TGI in assay [1], in assay [2], in assay [3], in assay [4], in [5] and in assay [6] was above 100 µM each time. In addition, the TGI in assay [7] and in [8] was above 100 µM in each case.

Regarding `COC(=O)C(=O)C(C(=O)C(=O)Nc1cc(Cl)c(Cl)cc1Cl)c1nc2ccc([N+](=O)[O-])cc2[nH]c1=O` (stereo not drawn), the TGI in assay [2], in assay [3], in assay [4], in assay [5], in [6] and in assay [7] was above 100 µM in each case. Besides, the TGI in assay [8] is above 100 µM.

As for `O=c1[nH]cc(C(F)(C(F)(F)F)C(F)(F)F)c(=O)[nH]1`, the TGI in assay [1], in assay [2], in [3], in assay [4], in [5] and in assay [6] was above 100 µM throughout. The TGI in assay [7] and in assay [9] was above 100 µM each time.

Regarding `CC(=O)OC(=O)O/C=C\CCl`, the TGI in assay [1], in assay [2], in assay [3], in [5], in assay [7] and in assay [8] was above 100 µM throughout. Moreover, in [9], the TGI is above 100 µM.

For the compound `C/C(CC(=O)Nc1cccc([N+](=O)[O-])c1)=N\NC(=O)CC#N`, the TGI in assay [1], in assay [2], in [3], in [4], in assay [5] and in assay [6] was above 100 µM in each case. For the same compound, the TGI in [8] and in assay [9] was above 100 µM each time.

Regarding `O=CCCCC(Sc1ccccc1)Sc1ccccc1`, the TGI in assay [1] was 78.3 µM; in assay [2], above 100 µM; in assay [4], 27.3 µM; in assay [5], 48.5 µM; in assay [6] it was above 100 µM; in [7], 56.7 µM. The TGI is 84 µM in [8] and above 100 µM in assay [9].
